Measured values taken from patent US20080200501A1, “NOVEL CANNABINOID RECEPTOR LIGANDS, PHARMACEUTICAL COMPOSITIONS CONTAINING THEM, AND PROCESSES FOR THEIR PREPARATION” (Glenmark Pharmaceuticals S.A., priority 2006, published 2008).

Key:
[1] = Pharmacokinetic study, single oral dose in rats; format: in vivo; conditions: Sprague-Dawley, rat; mean; male Sprague-Dawly rats, single oral dose 10 mg/kg in 0.5% methylcellulose suspension, overnight fasted; plasma, HPLC-UV
Experimental: Male Sprague-Dawly rats were administered by oral gavage a single oral dose of 10 mg/kg b.wt. test compound in 0.5% methylcellulose suspension in overnight fasted (12 hrs before dose) condition. Fasting was continued till 4 hr post dose. Blood samples were collected predose and at 15 and 30 minutes and 1, 2, 3, 4, 6, 8, 12 and 24 hrs post-dose and were kept on an ice bath till further processing. These samples were separated for plasma by centrifuging at 4° C. for 10 minutes at 1000×g and then stored at −70° C. till further analysis. These samples were analyzed for the levels of the test compound by HPLC-UV and the pharmacokinetic parameters were calculated using these concentrations by using WinNonlin software (Pharsight Inc., USA, Version 5.1).

Work on CC(C)(CO)NC(=O)c1nn(-c2ccc(Cl)cc2)c2c1[C@@H]1CC[C@H]2C1 (single isomer, unassigned) [Compound 98, (1S,7R)- or (1R,7S)-N5-(2-Hydroxy-1,1-dimethylethyl)-3-(4-chlorophenyl)-3,4-diazatricyclo[5.2.1.0^2,6]deca-2(6),4-diene-5-carboxamide] yielded an AUC(0-inf) [1] of 12000 ng·h/mL, an AUC(0-t) [1] of 11700 ng·h/mL and a Cmax [1] of 1950 ng/mL. It also gave a Tmax [1] of 0.5 h and a half-life [1] of 4.77 h.

Work on CCCCCC(C)(C)NC(=O)c1nn(-c2ccc(F)cc2F)c2c1C1CCC2C1 (stereo not drawn) yielded a melting point of 76 to 78 °C.
